For one assay, the system named is A549 carcinoma cell. Further details: method as in PMID 21087602. Conditions: cited from earlier work.
For assay [1], the target named is T1, Kv1.3 (Mus musculus, UniProt P16390).
T1 construct: expressed in transfected cells; host or cells: L929
Conditions: cited from earlier work.

In assay [2] the target is T2, Kv1.2 (Homo sapiens, UniProt P16389).
T2 construct: expressed in transfected cells; host or cells: HEK293T
The following applies: cited from earlier work.

For assay [3], the target named is T2, Kv1.2. In words: whole-cell patch-clamp, K+ current of Kv1.2 in HEK293T. The format is cell-based. The method, then:
(§1) Human Embrionary kidney HEK293T cells were grown in Dulbeccos’s Modified Eagle’s Medium (Sigma-Aldrich, St. Louis, MO, USA) supplemented with 10% fetal calf serum (GIBCO-ThermoFischer, Waltham, MA, USA) and 1% Antibiotic-Antimycotic® (GIBCO-ThermoFischer, Waltham, MA, USA). HEK293T cells were transfected with 1 μg of pcDNA3-Kv1.1, pcDNA3-Kv1.2, or pcDNA3-Kv1.4 and 0.1 μg of EGFP (Clontech Laboratories, Palo Alto, CA, USA) using Lipofectamine 3000 (ThermoFischer, Waltham, MA, USA). L929 cells expressing the Kv1.3 channel were grown in Dulbeccos’s Modified Eagle’s Medium (Sigma-Aldrich) supplemented with 10% fetal calf serum and 100 units/mL of penicillin and 10 µg/mL of streptomycin. Cells were grown in an incubator with a moist atmosphere and 5% CO2, at a constant temperature of 37 °C.
(§2) Potassium macrocurrents (IKs) were measured in whole-cell mode using a HEKA EPC 10 USB amplifier and controlled by PATCHMASTER software version 2x92 (HEKA Elektronik, Lambrecht, Germany). Experiments were performed at a room temperature of 23 °C. […]
(§3) The pipette (internal) solution contained (mM) KCl 140, MgCl2 2, CaCl2 1, EGTA 10, and HEPES 10, with a pH of 7.3 corrected with KOH and an experimental osmolarity of 337 mOsmol. […] The solutions’ osmolarity was measured with a K-7400S semi-micro osmometer (Knauer Berlin, Germany). […]

Assay [4] deals with T1, Kv1.3. In words: whole-cell patch-clamp, K+ current of Kv1.3 in L929. The format is cell-based. The method, then: as §1, §2, §3

Here are results for 2 compounds from article PMC11861696, “The First K^+-Channel Blocker Described from Tityus fasciolatus Venom: The Purification, Molecular Cloning, and Functional Characterization of α-KTx4.9 (Tf5)” (Toxins, 2025).

Positions of bridges follow the written chain, without caps; N, C: chain ends. Residues, ends and D or L forms follow the SMILES beside them. No end group written: not given here.

T1 sequence (P16390 whole entry): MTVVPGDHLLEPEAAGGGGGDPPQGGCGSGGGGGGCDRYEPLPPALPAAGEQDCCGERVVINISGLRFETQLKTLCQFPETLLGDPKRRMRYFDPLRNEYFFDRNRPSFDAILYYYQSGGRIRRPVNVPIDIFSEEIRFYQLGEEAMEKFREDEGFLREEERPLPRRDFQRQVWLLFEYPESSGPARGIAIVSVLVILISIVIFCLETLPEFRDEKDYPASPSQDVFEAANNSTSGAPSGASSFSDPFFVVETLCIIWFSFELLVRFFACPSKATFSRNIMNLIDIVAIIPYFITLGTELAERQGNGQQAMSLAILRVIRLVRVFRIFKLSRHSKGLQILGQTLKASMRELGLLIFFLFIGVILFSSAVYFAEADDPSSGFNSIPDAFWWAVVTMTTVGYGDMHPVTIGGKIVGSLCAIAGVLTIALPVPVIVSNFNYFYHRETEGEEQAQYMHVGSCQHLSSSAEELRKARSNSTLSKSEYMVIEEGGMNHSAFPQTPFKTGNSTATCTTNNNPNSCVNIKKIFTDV
T2 sequence (P16389 whole entry): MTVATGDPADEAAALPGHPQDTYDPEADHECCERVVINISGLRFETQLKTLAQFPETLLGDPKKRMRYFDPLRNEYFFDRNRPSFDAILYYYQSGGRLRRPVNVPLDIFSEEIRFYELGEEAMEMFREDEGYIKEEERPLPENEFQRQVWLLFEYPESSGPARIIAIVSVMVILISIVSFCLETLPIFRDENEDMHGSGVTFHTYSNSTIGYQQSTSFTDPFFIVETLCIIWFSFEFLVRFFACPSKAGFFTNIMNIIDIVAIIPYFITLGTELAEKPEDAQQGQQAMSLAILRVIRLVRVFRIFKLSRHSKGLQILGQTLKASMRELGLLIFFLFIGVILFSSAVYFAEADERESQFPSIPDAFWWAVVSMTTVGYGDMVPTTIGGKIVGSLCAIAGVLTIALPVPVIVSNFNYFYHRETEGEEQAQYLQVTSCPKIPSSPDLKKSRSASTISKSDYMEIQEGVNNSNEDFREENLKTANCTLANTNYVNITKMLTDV

With “MgTx: isolated from the scorpion Centruroides margaritatus, Kv1.2 and Kv1.3 blocker (TIINVKCTSPKQCLPPCKAQFGQSAGAKCMNGKCKCYPH; ends and bridges not checked; cysteine pairing not given here; UniProt P40755 1-39, looked up)”, the “viability of A549 carcinoma cell cultures” value with A549 carcinoma cell is listed as “reduce the viability”. Moreover, the “block of Kv1.3” value with Kv1.3 [1] was “Kv1.2 and Kv1.3 blocker”. In addition, in the assay with Kv1.2 [2], the “block of Kv1.2” value was “Kv1.2 and Kv1.3 blocker”.

With `CC[C@H](C)[C@@H]1NC(=O)[C@H](C)NC(=O)[C@H](CCC(=O)O)NC(=O)[C@H](CCCCN)NC(=O)[C@@H]2CSSC[C@@H](C(=O)N[C@@H](Cc3ccc(O)cc3)C(=O)N3CCC[C@H]3C(=O)O)NC(=O)[C@H](CCCCN)NC(=O)[C@@H]3CSSC[C@H](NC(=O)[C@H](CCC(=O)O)NC(=O)[C@@H]4CCCN4C(=O)[C@H](CO)NC(=O)CNC(=O)[C@H](CCCNC(=N)N)NC(=O)[C@@H](NC(=O)[C@H](CCCNC(=N)N)NC(=O)[C@H](C)NC(=O)[C@H](CC(N)=O)NC(=O)[C@@H](NC(=O)[C@H](Cc4ccccc4)NC(=O)[C@@H](N)C(C)C)[C@@H](C)CC)CSSC[C@H](NC(=O)[C@H](CCCCN)NC(=O)CNC(=O)[C@H](C)NC(=O)[C@H](CO)NC(=O)[C@H](CCCCN)NC(=O)CNC1=O)C(=O)N[C@@H](CCSC)C(=O)N[C@@H](CC(N)=O)C(=O)NCC(=O)N[C@@H](CCCCN)C(=O)N3)C(=O)N[C@@H](CC(C)C)C(=O)N1CCC[C@H]1C(=O)N[C@@H](CCCCN)C(=O)N2` [Tf5] (H-VFINARCRGSPECLPKCKEAIGKSAGKCMNGKCKCYP-OH; disulfide 7-28, 13-33, 17-35), the inhibition at 0.5 µM against Kv1.2 [3] (HEK-293T, 500 nM Tf5, HEK293T transfected with pcDNA3-Kv1.2, whole-cell, stimulated at 30 mV over 200 ms from -80 mV, 23 °C, n = 9) is 90.2 ± 3.78%; at Kv1.3 [4] (500 nM Tf5, L929 cells expressing Kv1.3, whole-cell, stimulated at 30 mV over 200 ms from -80 mV, 23 °C, n = 7) it was 81.8 ± 4.29%. In addition, the IC50 on Kv1.2 [3] (dose–response curve, Figure 5E, n ≥5 for each concentration, read-out: Log IC50 Kv1.2 (converted)) is 15.5 nM; at Kv1.3 [4] (dose–response curve, Figure 5F, n ≥5 for each concentration, read-out: Log IC50 Kv1.3 (converted)), 116 nM.
